Target: Tyrosine-protein kinase JAK2 (Homo sapiens, UniProt O60674)
Test: JAK2 Z-Lyte Biochemical Assay
Experimental: The JAK2 Z-Lyte biochemical assay was performed according to manufacturer's instructions (Life Technologies).

Chain of Tyrosine-protein kinase JAK2 (O60674 whole entry): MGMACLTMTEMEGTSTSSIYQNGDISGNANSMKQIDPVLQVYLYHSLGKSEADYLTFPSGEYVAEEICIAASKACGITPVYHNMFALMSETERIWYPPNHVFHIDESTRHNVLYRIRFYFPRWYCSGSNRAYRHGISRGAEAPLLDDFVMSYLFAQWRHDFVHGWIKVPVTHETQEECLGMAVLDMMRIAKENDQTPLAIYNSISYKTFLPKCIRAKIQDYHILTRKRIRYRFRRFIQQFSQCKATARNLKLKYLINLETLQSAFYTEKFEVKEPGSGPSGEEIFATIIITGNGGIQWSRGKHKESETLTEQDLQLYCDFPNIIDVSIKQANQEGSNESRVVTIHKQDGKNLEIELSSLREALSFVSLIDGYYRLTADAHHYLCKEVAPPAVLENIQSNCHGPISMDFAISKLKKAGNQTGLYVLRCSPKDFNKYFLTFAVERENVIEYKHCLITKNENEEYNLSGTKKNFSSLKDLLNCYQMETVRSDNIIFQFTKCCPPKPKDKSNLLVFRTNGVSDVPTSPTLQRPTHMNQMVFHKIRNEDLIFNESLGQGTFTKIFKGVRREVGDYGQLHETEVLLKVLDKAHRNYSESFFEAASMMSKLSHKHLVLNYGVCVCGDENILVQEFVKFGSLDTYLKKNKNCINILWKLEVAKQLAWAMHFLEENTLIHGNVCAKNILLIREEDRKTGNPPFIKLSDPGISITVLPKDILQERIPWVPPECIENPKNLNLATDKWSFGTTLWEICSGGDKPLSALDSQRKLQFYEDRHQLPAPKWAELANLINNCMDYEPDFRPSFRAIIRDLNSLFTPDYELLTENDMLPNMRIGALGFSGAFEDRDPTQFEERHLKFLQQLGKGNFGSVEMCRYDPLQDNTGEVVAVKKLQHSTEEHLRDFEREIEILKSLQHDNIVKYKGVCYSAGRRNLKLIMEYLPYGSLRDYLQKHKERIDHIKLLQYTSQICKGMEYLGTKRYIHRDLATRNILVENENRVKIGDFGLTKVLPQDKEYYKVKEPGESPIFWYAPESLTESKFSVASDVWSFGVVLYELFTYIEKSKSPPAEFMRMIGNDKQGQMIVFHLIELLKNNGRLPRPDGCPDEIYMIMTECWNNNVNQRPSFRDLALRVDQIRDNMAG

CC(=O)Nc1cc(Oc2ccc3nc(Nc4cccc(C(C)(C)C#N)c4)n4c3c2CCC4)ccn1 [US20240101559, Compound I-2]
IC50: 4.07 µM

— BindingDB's records for patent US20240101559 (Dana-Farber Cancer Institute, 2024)
